Like-named read-outs stand apart in the source and are kept apart here.
Assays:
MMP-2 = biological target: T1, MMP-2 (Homo sapiens, UniProt P08253); experiment: Assay for inhibitory activities on MMPs (fluorogenic peptide substrate), MMP-2; type: biochemical
T1 construct: purchased Calbiochem-Novabiochem International, Inc
T1 sequence (P08253 110-660): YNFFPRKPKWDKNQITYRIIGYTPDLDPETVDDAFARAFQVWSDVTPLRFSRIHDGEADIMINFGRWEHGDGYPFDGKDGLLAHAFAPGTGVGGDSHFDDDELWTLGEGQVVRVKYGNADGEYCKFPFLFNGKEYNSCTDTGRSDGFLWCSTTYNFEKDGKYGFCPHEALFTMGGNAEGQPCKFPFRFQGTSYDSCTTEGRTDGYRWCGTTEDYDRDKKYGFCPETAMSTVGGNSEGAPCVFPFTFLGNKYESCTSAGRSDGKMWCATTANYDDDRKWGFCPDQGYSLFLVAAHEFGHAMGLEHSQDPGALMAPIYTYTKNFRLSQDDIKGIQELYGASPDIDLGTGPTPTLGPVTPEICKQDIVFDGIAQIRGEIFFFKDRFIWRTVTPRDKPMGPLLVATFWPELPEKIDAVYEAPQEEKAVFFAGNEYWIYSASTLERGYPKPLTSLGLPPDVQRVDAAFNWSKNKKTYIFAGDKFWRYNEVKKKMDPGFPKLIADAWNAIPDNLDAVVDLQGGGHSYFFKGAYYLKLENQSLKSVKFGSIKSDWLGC
Procedure: MMP-2 was purchased from Calbiochem-Novabiochem International, Inc.
(§1) The enzymatic activity on MMPs was analyzed by the method described in “C. […] The substrate (MOCAc-Pro-Leu-Gly-Leu-A2Pr(DNP)-Ala-Arg-NH2) was purchased from Peptide Institute, Inc., Osaka, Japan.
(§2) The measurement of the inhibitory activities (IC50) was carried out by the following four methods;
(§3) A) Reaction with substrate, enzyme (MMPs) and inhibitor
(§4) B) Reaction with substrate and inhibitor, without enzyme
(§5) C) Reaction with substrate and enzyme (MMPs), without inhibitor
(§6) D) Reaction with substrate only
(§7) IC50 values were calculated by using the following formula and each fluorescence values of above four methods (A to D).
(§8) % inhibition={1−(A−B)/(C−D)}×100

MMP-8 Catalytic domain = biological target: T2, MMP-8 Catalytic domain (Homo sapiens, UniProt P22894); experiment: Assay for inhibitory activities on MMPs (fluorogenic peptide substrate), MMP-8; type: biochemical
T2 construct: MMP-8 Catalytic domain (^99Phe˜^262Gly); His-tag; Enterokinase digestion site; made in house; host or cells: E. coli
Procedure: The DNA fragment was cloned into an E. coli expression vector, pTrc99A containing the His-tag sequence and Enterokinase digestion site. The MMP-8 Catalytic domain expression was induced by the addition of IPTG (Isopropyl-β-D-thiogalactopyranoside), and the cell pellet containing MMP-8 Catalytic domain was obtained. […] Isolation of MMP-8 from the cell pellet was used by general techniques. After the cell pellet was dissolved in 6M urea, the solution was loaded onto a metal-chelating matrix. Subsequently, dialysis was used to remove urea and refold of MMP=8. And then active MMP-8 was obtained.
as §1, §2, §3, §4, §5, §6, §7, §8

MMP-9 = biological target: T3, MMP-9 (Homo sapiens, UniProt P14780); experiment: Assay for inhibitory activities on MMPs (fluorogenic peptide substrate), MMP-9; type: biochemical
T3 construct: purchased Calbiochem-Novabiochem International, Inc
Procedure: MMP-9 was purchased from Calbiochem-Novabiochem International, Inc.
as §1, §2, §3, §4, §5, §6, §7, §8

[1] = tested on: Lewis mouse lung carcinoma cells; experiment: Antitumor efficacy using artificial lung metastasis of Lewis mouse lung carcinoma; type: in vivo, BDF1 mice; conditions: for inhibition in vivo at 20 mg/kg / inhibition in vivo at 200 mg/kg / inhibition in vivo at 2 mg/kg: Mus musculus, po, 336 h, read-out: Inhibition (%)
Procedure: Lewis mouse lung carcinoma cells (4×10^5 cells) were inoculated into the tail vein of BDF1 mice. […] The doses of the compounds were 20 and 200 mg/kg or 2 and 20 mg/kg. At 14 day after tumor inoculation, tumor nodules formed in the lung of the treated mice were counted and the antitumor efficacy was evaluated.

[2] = experiment 3-1, 20 mg/kg oral, five times, lung tumor nodules at day 14
[3] = experiment 3-1, 200 mg/kg oral, five times, lung tumor nodules at day 14
[4] = experiment 3-2, 20 mg/kg oral, five times, lung tumor nodules at day 14
[5] = experiment 3-2, 200 mg/kg oral, five times, lung tumor nodules at day 14
[6] = experiment 3-3, 2 mg/kg oral, five times, lung tumor nodules at day 14
[7] = experiment 3-3, 20 mg/kg oral, five times, lung tumor nodules at day 14

T2 sequence (P22894 99-262): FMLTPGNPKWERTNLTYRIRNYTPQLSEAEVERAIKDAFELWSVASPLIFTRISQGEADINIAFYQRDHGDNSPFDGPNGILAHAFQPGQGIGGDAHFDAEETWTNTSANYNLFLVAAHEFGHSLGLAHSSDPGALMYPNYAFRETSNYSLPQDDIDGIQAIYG
T3 sequence (P14780 94-707): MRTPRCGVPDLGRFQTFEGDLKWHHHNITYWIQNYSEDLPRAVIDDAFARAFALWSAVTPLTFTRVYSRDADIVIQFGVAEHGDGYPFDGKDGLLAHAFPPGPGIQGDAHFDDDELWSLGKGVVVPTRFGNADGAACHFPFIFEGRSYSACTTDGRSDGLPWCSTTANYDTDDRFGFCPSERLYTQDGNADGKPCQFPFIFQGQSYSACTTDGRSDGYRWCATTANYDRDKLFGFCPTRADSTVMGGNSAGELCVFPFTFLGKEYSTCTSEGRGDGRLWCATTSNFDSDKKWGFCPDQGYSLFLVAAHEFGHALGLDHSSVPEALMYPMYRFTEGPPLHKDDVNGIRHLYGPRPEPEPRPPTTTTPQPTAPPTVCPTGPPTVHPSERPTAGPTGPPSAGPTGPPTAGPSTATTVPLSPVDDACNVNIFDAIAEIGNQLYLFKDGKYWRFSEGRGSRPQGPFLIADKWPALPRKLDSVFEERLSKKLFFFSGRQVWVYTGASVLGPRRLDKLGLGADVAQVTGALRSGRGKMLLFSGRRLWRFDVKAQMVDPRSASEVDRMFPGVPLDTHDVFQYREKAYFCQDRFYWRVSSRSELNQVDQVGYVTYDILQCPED

| IC50 (MMP-2) [nM] | IC50 (MMP-8 Catalytic domain) [nM] | IC50 (MMP-9) [nM] | melting point [°C] | SMILES | inhibition in vivo at 20 mg/kg [1, 2] [%] | inhibition in vivo at 200 mg/kg [1, 3] [%] | Number of colonies (Mean ± SD) [1, 2] | Number of colonies (Mean ± SD) [1, 3] | inhibition in vivo at 20 mg/kg [1] [%] | inhibition in vivo at 200 mg/kg [1] [%] | inhibition in vivo at 20 mg/kg [1, 4] [%] | inhibition in vivo at 200 mg/kg [1, 5] [%] | Number of colonies (Mean ± SD) [1, 4] | Number of colonies (Mean ± SD) [1, 5] | inhibition in vivo at 2 mg/kg [1] [%] | Number of colonies (Mean ± SD) [1, 6] | Number of colonies (Mean ± SD) [1, 7] | inhibition in vivo at 2 mg/kg [1, 6] [%] | inhibition in vivo at 20 mg/kg [1, 7] [%] |
| --- | --- | --- | --- | --- | --- | --- | --- | --- | --- | --- | --- | --- | --- | --- | --- | --- | --- | --- | --- |
| 30 | > 1000 | 470 | 200 to 203 | Cc1ccc(-c2noc(-c3ccc(S(=O)(=O)N[C@H](C)C(=O)O)cc3)n2)cc1 [Compound A-1] | 53 | 69 | 20.2 ± 13.3 | 13.3 ± 11.8 | – | – | – | – | – | – | – | – | – | – | – |
| 53 | > 1000 | > 1000 | 221 to 222 | O=C(O)[C@@H](Cc1ccccc1)NS(=O)(=O)c1ccc(-c2nc(-c3ccccc3)no2)cc1 [Compound A-2] | – | – | – | – | – | – | – | – | – | – | – | – | – | – | – |
| 15 | 775 | 384 | – | Cc1ccc(-c2noc(-c3ccc(S(=O)(=O)N[C@H](Cc4ccccc4)C(=O)O)cc3)n2)cc1 [Compound A-3] | – | – | – | – | – | – | – | – | – | – | – | – | – | – | – |
| 30 | 610 | > 1000 | – | CC(C)[C@@H](NS(=O)(=O)c1ccc(-c2nc(-c3cccs3)no2)cc1)C(=O)O [Compound A-5] | – | – | – | – | – | – | 24 | 37 | 41.8 ± 22.5 | 34.8 ± 12.1 | – | – | – | – | – |
| 50 | > 1000 | > 1000 | – | C[C@@H](NS(=O)(=O)c1ccc(-c2nc(-c3ccc(F)cc3)no2)cc1)C(=O)O [Compound A-6] | – | – | – | – | – | – | 26 | 57 | 40.8 ± 13.5 | 24.0 ± 9.7 | – | – | – | – | – |
| 8 | > 1000 | 78 | – | CCc1ccc(-c2noc(-c3ccc(S(=O)(=O)N[C@H](Cc4ccccc4)C(=O)O)cc3)n2)cc1 [Compound A-7] | 56 | 49 | 18.8 ± 6.9 | 21.7 ± 9.6 | – | – | – | – | – | – | – | – | – | – | – |
| 18 | > 1000 | 566 | – | O=C(O)[C@@H](Cc1c[nH]c2ccccc12)NS(=O)(=O)c1ccc(-c2nc(-c3ccccc3)no2)cc1 [Compound A-9] | – | – | – | – | – | – | 30 | 51 | 38.7 ± 5.8 | 27.0 ± 9.7 | – | – | – | – | – |
| 65 | > 1000 | > 1000 | – | C[C@@H](NS(=O)(=O)c1ccc(-c2nc(-c3ccccc3)no2)cc1)C(=O)O [Compound A-10] | 43 | 41 | 24.5 ± 7.8 | 25.2 ± 17.0 | – | – | – | – | – | – | – | – | – | – | – |
| – | – | – | – | O=C(O)[C@@H](Cc1c[nH]c2ccccc12)NSOOc1ccc(-c2nnn(-c3ccccc3)n2)cc1 [Compound B-1, reference compound] | 38 | 46 | 26.5 ± 19.5 | 23.0 ± 7.6 | – | – | 37 | 31 | 34.8 ± 14.5 | 38.3 ± 20.7 | – | 53.5 ± 18.5 | 37.5 ± 13.0 | 14 | 39 |

| SMILES | IC50 (MMP-2) [nM] | IC50 (MMP-8 Catalytic domain) [nM] | IC50 (MMP-9) [nM] | melting point [°C] | inhibition in vivo at 20 mg/kg [1, 2] [%] | inhibition in vivo at 200 mg/kg [1, 3] [%] | Number of colonies (Mean ± SD) [1, 2] | Number of colonies (Mean ± SD) [1, 3] | inhibition in vivo at 20 mg/kg [1] [%] | inhibition in vivo at 200 mg/kg [1] [%] | inhibition in vivo at 20 mg/kg [1, 4] [%] | inhibition in vivo at 200 mg/kg [1, 5] [%] | Number of colonies (Mean ± SD) [1, 4] | Number of colonies (Mean ± SD) [1, 5] | inhibition in vivo at 2 mg/kg [1] [%] | Number of colonies (Mean ± SD) [1, 6] | Number of colonies (Mean ± SD) [1, 7] | inhibition in vivo at 2 mg/kg [1, 6] [%] | inhibition in vivo at 20 mg/kg [1, 7] [%] |
| --- | --- | --- | --- | --- | --- | --- | --- | --- | --- | --- | --- | --- | --- | --- | --- | --- | --- | --- | --- |
| C[C@@H](NS(=O)(=O)c1ccc(-c2nc(-c3ccc(Cl)cc3)no2)cc1)C(=O)O [Compound A-4] | 26 | > 1000 | 190 | – | – | – | 19.2 ± 9.4 | 23.3 ± 12.8 | 55 | 46 | – | – | – | – | – | – | – | – | – |
| Cc1ccc(-c2noc(-c3ccc(S(=O)(=O)N[C@@H](Cc4ccccc4)C(=O)O)cc3)n2)cc1 [Compound A-8] | 51 | > 1000 | 479 | – | – | – | 18.8 ± 11.4 | 15.7 ± 5.5 | 56 | 63 | – | – | – | – | – | – | – | – | – |
| Cc1ccc(-c2noc(-c3ccc(S(=O)(=O)N[C@@H](C(=O)O)C(C)C)cc3)n2)s1 [Compound A-93] | 6 | 88 | 47 | – | – | – | – | – | 50 | – | – | – | – | – | 41 | 36.3 ± 9.2 | 30.8 ± 10.8 | – | – |

Reference: patent publication US6720343B2, “Oxadiazole derivatives having anticancer effects” (Shionogi & Co., Ltd., priority 2002, dated 2004)
